Reference: patent publication US7737158B2, “Processes for regulating blood glucose in a mammal” (Washington University, priority 2005, dated 2010)
“Also recorded” adds a separate entry of the source.

What was measured:
[1] = tested on: HIB-1B adipocytes; experiment: Secretion assay with brefeldin A in differentiated HIB-1B adipocytes (Western blot); assay type: cell-based, mouse; settings: BFA 0.5 ug/ml, 12 hours, differentiated HIB-1B adipocytes (day 8)
Experimental: HIB-1B cells expressing Nampt-FLAG, Dhfr-FLAG, and Ppl-FLAG were differentiated to mature adipocytes (day 8) in 10-cm dishes, and their cell extracts were collected and immunoprecipitated as described above. Culture supernatant (˜8 ml) were collected and immunoprecipitated overnight at 4° C. with anti-FLAG antibody-conjugated beads, washed twice with PBS, and analyzed by Western Blot with rabbit polyclonal anti-FLAG antibody (Sigma, MO).
Brefeldin A (BFA), a potent inhibitor of the classical secretory pathway, was added to examine if Nampt-FLAG® is secreted through the ER-Golgi system. Fully differentiated HIB-1B adipocytes (day 8) were treated with BFA (0.5 ug/ml, Sigma, MO) for 12 hours, and cell extracts and culture supernatants were collected and analyzed as described above.

[2] = tested on: Chinese hamster ovary (CHO) cells; experiment: Secretion assay with brefeldin A in transfected CHO cells (Western blot); assay type: cell-based; settings: BFA-treated transfected CHO cells
Experimental: Cell extracts and culture supernatants were collected 48 hours after transfection, and subjected to immunoprecipitation with anti-FLAG® antibody-conjugated beads as described above, and analyzed by Western Blot with rabbit polyclonal anti-FLAG® antibody (Sigma, MO). Cells were also treated with BFA as described above.

[3] = tested on: mouse mammary carcinoma model; settings: eight intraperitoneal injections, 25 mg/kg per injection, 12-hour interval; Muruganandham et al. 2005; cited from earlier work
[4] = tested on: C57BL/6 mice; experiment: Blood glucose levels after intraperitoneal injection in fasted C57BL/6 mice; assay type: in vivo, mouse; settings: for effect on blood glucose levels at lower dose: 50 mg/kg intraperitoneal, compared with 500 mg/kg; for blood glucose levels: 4-hr fast, 0-120 min after injection
Experimental: In this Example, five adult mice (C57BL/6; male; 3-4 months of age) were subjected to a 4-hr fast followed by intraperitoneal injection (500 mg/kg; 50 mg/kg) of nicotinamide, nicotinamide mononucleotide (NMN), or nicotinamide adenine dinucleotide (NAD). A control group of five fasted mice ([…]) were injected with PBS.
Blood glucose levels were measured from tail vein blood samples with an Accu-Chek glucometer (Roche Diagnostics) at 0, 15, 30, 60 and 120 min after injection.

[5] = tested on: Nampt^+/− mice; experiment: Intraperitoneal glucose tolerance test (IPGTT) after NMN administration in Nampt+/- mice; assay type: in vivo, mouse
Experimental: Intraperitoneal glucose tolerance tests (IPGTTs) were conducted with a does of 3 g dextrose/kg body weight on Nampt^+/− and Nampt^+/+ siblings. For the IPGTTs, after mice were injected with PBS or NMN (500 mg/kg body weight) and fasted for 12-14 hours, dextrose (3 g/kg body weight) was injected intraperitoneally, and blood glucose levels were measured at 0, 15, 30, 60, and 120 min after injection. Plasma was also collected at 0 and 30 min time points after glucose injection and submitted for insulin measurements to the Washington University RIA Core facility. For the ITTs, after female mice were fasted for 4 hours, human insulin (0.75 U/kg body weight) (Lilly) was injected intraperitoneally to these mice, and blood glucose levels were measured at 0, 15, 30, 45, and 60min after insulin injection.
If the NAD biosynthetic activity of Nampt is responsible for the phenotypes observed in Nampt^+/− mice, the administration of NMN, a product of the Nampt enzymatic reaction, should be able to correct their problems. To test this possibility, the same Nampt^+/− mice that were used for IPGTTs were injected with NMN at a dose of 500 mg/kg body weight intraperitoneally ˜14 hrs prior to IPGTTs. As a control, PBS was injected to the mice ˜14 hrs before conducting previous IPGTTs. […] Blood glucose levels were monitored with a glucometer at 0, 30, and 60 min time points after injection.

[6] = tested on: B6 mice; experiment: Toxicity of NMN dose in B6 mice; assay type: in vivo, mouse; settings: NMN 500 mg/kg body weight
Excerpt: Therefore, it will be of great interest to examine whether NMN administration also alleviates the effects of Nampt haplodeficiency in HFD-fed Nampt^+/− mice and even improves the symptoms in HFD-fed Nampt^+/+ mice. […] NMN administration causes an acute increase in blood glucose within 2 hrs, probably due to the rapid release of calcium and eicosanoid in the liver (Broetto-Biazon et al., Eur. J. Pharmacol., (2004) 484, 291-301). Therefore, physiological tests will be conducted ˜14 hrs after NMN injection, as described in Example 18.

[7] = tested on: NIH3T3 cells; experiment: Total cellular NAD levels in NIH3T3 cells by HPLC; assay type: cell-based, mouse; settings: addition of 5 mM nicotinamide to the medium (otherwise 33 μM)
Experimental: Total cellular levels of NAD was measured in the NIH3T3 cell lines overexpressing the untagged enzymes. High performance liquid chromatography was used to measure NAD (Neubert et al., Biochim. Biophys. Acta., (1964) 92, 610-612; Emanuelli et al., J. Chromatogr., (1996) B. 676, 13-18). Briefly, 5×10^5 cells were plated in 6 cm dishes and harvested 48 h later in 800 μl of ice-cold PBS. Cells were then spun down and lysed with 300 μl of 1M HClO4 on ice for 10 min. Lysates were cleared by centrifugating at 4° C. at 18,000 g for 5 minutes. Cleared lysates (240 μl) were neutralized by adding 80 μl of 3M K2CO3 and incubating on ice for 10 minutes. After centrifuging for 10 min, 100 μl of the supernatant were mixed with 400 μl of Buffer A and loaded onto the column. The HPLC was run at a flow rate of 1 ml/min with 100% Buffer A from 0 to 5 min, a linear gradient to 95% Buffer A and 5% Buffer B (100% methanol) from 5 to 6 min, 95% Buffer A and 5% Buffer B from 6 to 11 min, a linear gradient to 85% Buffer A and 15% Buffer B from 11 to 13 min, 85% Buffer A and 15% Buffer B from 13 to 23 min, and a linear gradient to 100% Buffer A from 23 to 24 min. NAD was eluted as a sharp peak at 22 min. The amount of NAD was quantitated based on the peak area compared to a standard curve.

SMILES: C[C@H]1CCC/C=C/[C@@H]2C[C@H](O)C[C@H]2[C@H](O)/C=C/C(=O)O1 [BFA, Brefeldin A]
- eNampt levels in supernatant (extracellular Nampt secretion) [1]: not affected; also recorded: not inhibited
- secretion of Prl-FLAG [1]: significantly inhibited
- secretion of Prl-FLAG ([1]; listed as brefeldin A): inhibited
- secretion of Prl-FLAG [2]: significantly inhibited
- secretion of extracellular Nampt [2]: unaffected

SMILES: O=C(/C=C/c1cccnc1)NCCCCC1CCN(C(=O)c2ccccc2)CC1 [FK866]
- inhibition of NAD biosynthesis in vivo [3]: effective to inhibit NAD biosynthesis
- toxicity [3]: without any obvious toxicity

SMILES: NC(=O)c1ccc[n+]([C@@H]2O[C@H](COP(=O)([O-])OP(=O)(O)OC[C@H]3O[C@@H](n4cnc5c(N)ncnc54)[C@H](O)[C@@H]3O)[C@@H](O)[C@H]2O)c1 [NAD, Nicotinamide adenine dinucleotide]
- effect on blood glucose levels at lower dose [4]: weaker
- blood glucose levels ([4]; 500 mg/kg intraperitoneal): significantly increased
- kinetics of glucose increase ([4]; 500 mg/kg intraperitoneal, comparison between compounds): much more pronounced and long-lasting effect

SMILES: NC(=O)c1ccc[n+]([C@@H]2O[C@H](COP(=O)([O-])O)[C@@H](O)[C@H]2O)c1 [NMN, Nicotinamide mononucleotide]
- effect on blood glucose levels at lower dose [4]: weaker
- blood glucose levels ([4]; 500 mg/kg intraperitoneal): significantly increased
- time within which the acute increase in blood glucose occurs after administration ([4]; NMN administration): ≤ 2 h
- glucose tolerance in IPGTT ([5]; NMN 500 mg/kg intraperitoneally ~14 hrs prior to IPGTT, Nampt+/- mice compared to Nampt+/+): no longer showed impaired glucose tolerance; also recorded: corrected impaired glucose tolerance; also recorded: can correct
- glucose-stimulated insulin secretion (plasma insulin) in IPGTT ([5]; NMN 500 mg/kg intraperitoneally ~14 hrs prior, 30 min after glucose injection, Nampt+/- mice): robust insulin secretion similar to that in Nampt^+/+ mice; also recorded: corrected
- toxicity [6]: not cause any obvious toxicity

SMILES: NC(=O)c1cccnc1 [nicotinamide, 3-pyridinecarboxamide]
- total cellular NAD level [7]: did not increase NAD
- effect on blood glucose levels at lower dose [4]: weaker
- blood glucose levels ([4]; 500 mg/kg intraperitoneal): significantly increased
